From patent US9458137B2, “Substituted indol-5-ol derivatives and their therapeutical applications” (NantBioScience, Inc., priority 2012, dated 2016)

What was measured:
Assay in all cases: Kinase panel activity
Type in all cases: biochemical
Conditions in all cases: 0.1 μM, ATP Km
[1] = target: IGF-1R(h) (Homo sapiens, UniProt P08069)
Protocol: (§1) The effect of NTW-3475 on kinase activity was tested for a wide range of kinases and is shown in Table 2: Summary Sheet, Activity % ATP Concentration: Km

[2] = target: PKD2(h) (Homo sapiens, UniProt Q9BZL6)
Protocol: as §1

[3] = target: MuSK(h) (Homo sapiens, UniProt O15146)
Protocol: as §1

[4] = target: T1, EphA3(h) (Homo sapiens, UniProt P29320)
T1 construct: purchased Millipore (KinaseProfiler service)
Protocol: as §1

[5] = target: IR(h) (Homo sapiens, UniProt P06213)
Protocol: as §1

[6] = target: BrSK1(h) (Homo sapiens, UniProt Q8TDC3)
Protocol: as §1

[7] = target: PKCζ(h) (Homo sapiens, UniProt Q05513)
Protocol: as §1

[8] = target: LOK(h) (Homo sapiens, UniProt O94804)
Protocol: as §1

[9] = target: DCAMKL2(h) (Homo sapiens, UniProt Q8N568)
Protocol: as §1

[10] = target: PDGFRα(V561D)(h) (Homo sapiens, UniProt P16234, V561D)
Protocol: as §1

[11] = target: PASK(h) (Homo sapiens, UniProt Q96RG2)
Protocol: as §1

[12] = target: AMPKα2(h) (Homo sapiens, UniProt P54646)
Protocol: as §1

[13] = target: T2, Rsk4(h) (Homo sapiens, UniProt Q9UK32)
T2 construct: purchased Millipore (KinaseProfiler service)
Protocol: as §1

[14] = target: FGFR4(h) (Homo sapiens, UniProt P22455)
Protocol: as §1

[15] = target: cKit(D816H)(h) (Homo sapiens, UniProt P10721, D816H)
Protocol: as §1

[16] = target: F1t3(D835Y)(h) (Homo sapiens, UniProt P36888, D835Y)
Protocol: as §1

[17] = target: T3, Rsk1(r) (Rattus norvegicus, UniProt Q63531)
T3 construct: purchased Millipore (KinaseProfiler service)
Protocol: as §1

[18] = target: F1t4(h) (Homo sapiens, UniProt P35916)
Protocol: as §1

[19] = target: JNK3(h) (Homo sapiens, UniProt P53779)
Protocol: as §1

[20] = target: T4, ROCK-II(r) (Rattus norvegicus, UniProt Q62868)
T4 construct: purchased Millipore (KinaseProfiler service)
Protocol: as §1

[21] = target: T5, EphA7(h) (Homo sapiens, UniProt Q15375)
T5 construct: purchased Millipore (KinaseProfiler service)
Protocol: as §1

[22] = target: NEK6(h) (Homo sapiens, UniProt Q9HC98)
Protocol: as §1

[23] = target: CDK7/cyclinH/MAT1(h) (Homo sapiens, UniProt P50613)
Protocol: as §1

[24] = target: T6, TrkA(h) (Homo sapiens, UniProt P04629)
T6 construct: purchased Millipore (KinaseProfiler service)
Protocol: as §1

[25] = target: PKBα(h) (Homo sapiens, UniProt P31749)
Protocol: as §1

[26] = target: CK2(h) (Homo sapiens, UniProt P68400)
Protocol: as §1

[27] = target: CHK2(h) (Homo sapiens, UniProt O96017)
Protocol: as §1

[28] = target: CLK2(h) (Homo sapiens, UniProt P49760)
Protocol: as §1

[29] = target: Pim-1(h) (Homo sapiens, UniProt P11309)
Protocol: as §1

[30] = target: T7, Ret(V804M)(h) (Homo sapiens, UniProt P07949, V804M)
T7 construct: purchased Millipore (KinaseProfiler service)
Protocol: as §1

[31] = target: Hck(h) (Homo sapiens, UniProt P08631)
Protocol: as §1

[32] = target: NEK2(h) (Homo sapiens, UniProt P51955)
Protocol: as §1

[33] = target: T8, MAPKAP-K3(h) (Homo sapiens, UniProt Q16644)
T8 construct: purchased Millipore (KinaseProfiler service)
Protocol: as §1

[34] = target: DDR2(h) (Homo sapiens, UniProt Q16832)
Protocol: as §1

[35] = target: PKCα(h) (Homo sapiens, UniProt P17252)
Protocol: as §1

[36] = target: IRAK1(h) (Homo sapiens, UniProt P51617)
Protocol: as §1

[37] = target: T9, SGK2(h) (Homo sapiens, UniProt Q9HBY8)
T9 construct: purchased Millipore (KinaseProfiler service)
Protocol: as §1

[38] = target: PAK2(h) (Homo sapiens, UniProt Q13177)
Protocol: as §1

[39] = target: CaMKIIβ(h) (Homo sapiens, UniProt Q13554)
Protocol: as §1

[40] = target: CaMKIIγ(h) (Homo sapiens, UniProt Q13555)
Protocol: as §1

Chain of Pim-1(h) (P11309 whole entry): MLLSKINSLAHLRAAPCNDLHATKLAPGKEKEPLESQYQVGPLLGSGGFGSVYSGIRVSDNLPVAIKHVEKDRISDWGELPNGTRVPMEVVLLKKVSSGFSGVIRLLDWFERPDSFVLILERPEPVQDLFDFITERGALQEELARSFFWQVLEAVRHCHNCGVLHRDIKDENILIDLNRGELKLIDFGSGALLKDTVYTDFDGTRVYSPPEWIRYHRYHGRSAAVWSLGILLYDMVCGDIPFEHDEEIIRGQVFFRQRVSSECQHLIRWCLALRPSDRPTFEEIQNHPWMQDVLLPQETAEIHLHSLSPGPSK
Chain of CHK2(h) (O96017 whole entry): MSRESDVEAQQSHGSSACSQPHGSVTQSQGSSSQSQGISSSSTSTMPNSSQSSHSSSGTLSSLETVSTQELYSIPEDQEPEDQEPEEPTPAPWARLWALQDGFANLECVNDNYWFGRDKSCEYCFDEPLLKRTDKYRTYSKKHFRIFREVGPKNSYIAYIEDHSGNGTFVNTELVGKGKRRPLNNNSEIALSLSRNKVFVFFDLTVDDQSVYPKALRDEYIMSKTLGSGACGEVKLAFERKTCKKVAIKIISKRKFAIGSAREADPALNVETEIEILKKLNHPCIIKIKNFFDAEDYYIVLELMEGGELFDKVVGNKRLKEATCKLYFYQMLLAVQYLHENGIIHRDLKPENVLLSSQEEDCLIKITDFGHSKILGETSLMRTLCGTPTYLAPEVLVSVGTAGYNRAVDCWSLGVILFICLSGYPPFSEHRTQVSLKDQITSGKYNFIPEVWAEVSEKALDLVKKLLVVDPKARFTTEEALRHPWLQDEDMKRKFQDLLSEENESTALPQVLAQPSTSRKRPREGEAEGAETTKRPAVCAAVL
T5 sequence (Q15375 28-998): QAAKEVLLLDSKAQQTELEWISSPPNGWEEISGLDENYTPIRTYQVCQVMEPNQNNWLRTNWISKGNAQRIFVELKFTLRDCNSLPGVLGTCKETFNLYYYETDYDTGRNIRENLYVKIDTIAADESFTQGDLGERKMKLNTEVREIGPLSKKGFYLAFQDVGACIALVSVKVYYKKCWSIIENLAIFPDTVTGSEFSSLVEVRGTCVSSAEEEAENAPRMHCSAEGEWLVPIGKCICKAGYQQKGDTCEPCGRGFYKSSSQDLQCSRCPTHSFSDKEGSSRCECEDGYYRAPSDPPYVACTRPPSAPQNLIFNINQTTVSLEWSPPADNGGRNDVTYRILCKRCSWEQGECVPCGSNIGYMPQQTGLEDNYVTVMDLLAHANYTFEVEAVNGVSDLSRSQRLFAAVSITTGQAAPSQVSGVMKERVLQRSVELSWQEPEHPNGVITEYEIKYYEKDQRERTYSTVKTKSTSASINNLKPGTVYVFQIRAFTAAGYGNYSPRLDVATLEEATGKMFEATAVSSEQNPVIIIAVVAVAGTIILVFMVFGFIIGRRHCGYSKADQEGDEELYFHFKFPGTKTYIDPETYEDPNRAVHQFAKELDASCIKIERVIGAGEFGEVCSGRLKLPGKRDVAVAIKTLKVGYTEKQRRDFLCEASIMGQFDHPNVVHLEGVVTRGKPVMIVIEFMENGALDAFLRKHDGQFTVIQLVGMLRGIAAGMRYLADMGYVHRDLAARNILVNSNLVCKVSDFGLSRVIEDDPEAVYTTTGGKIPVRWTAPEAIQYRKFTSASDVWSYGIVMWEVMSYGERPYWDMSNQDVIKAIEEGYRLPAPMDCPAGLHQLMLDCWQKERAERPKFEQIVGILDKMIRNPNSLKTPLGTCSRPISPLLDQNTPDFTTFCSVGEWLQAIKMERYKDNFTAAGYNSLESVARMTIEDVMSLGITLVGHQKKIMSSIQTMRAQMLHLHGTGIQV
T1 sequence (P29320 21-983): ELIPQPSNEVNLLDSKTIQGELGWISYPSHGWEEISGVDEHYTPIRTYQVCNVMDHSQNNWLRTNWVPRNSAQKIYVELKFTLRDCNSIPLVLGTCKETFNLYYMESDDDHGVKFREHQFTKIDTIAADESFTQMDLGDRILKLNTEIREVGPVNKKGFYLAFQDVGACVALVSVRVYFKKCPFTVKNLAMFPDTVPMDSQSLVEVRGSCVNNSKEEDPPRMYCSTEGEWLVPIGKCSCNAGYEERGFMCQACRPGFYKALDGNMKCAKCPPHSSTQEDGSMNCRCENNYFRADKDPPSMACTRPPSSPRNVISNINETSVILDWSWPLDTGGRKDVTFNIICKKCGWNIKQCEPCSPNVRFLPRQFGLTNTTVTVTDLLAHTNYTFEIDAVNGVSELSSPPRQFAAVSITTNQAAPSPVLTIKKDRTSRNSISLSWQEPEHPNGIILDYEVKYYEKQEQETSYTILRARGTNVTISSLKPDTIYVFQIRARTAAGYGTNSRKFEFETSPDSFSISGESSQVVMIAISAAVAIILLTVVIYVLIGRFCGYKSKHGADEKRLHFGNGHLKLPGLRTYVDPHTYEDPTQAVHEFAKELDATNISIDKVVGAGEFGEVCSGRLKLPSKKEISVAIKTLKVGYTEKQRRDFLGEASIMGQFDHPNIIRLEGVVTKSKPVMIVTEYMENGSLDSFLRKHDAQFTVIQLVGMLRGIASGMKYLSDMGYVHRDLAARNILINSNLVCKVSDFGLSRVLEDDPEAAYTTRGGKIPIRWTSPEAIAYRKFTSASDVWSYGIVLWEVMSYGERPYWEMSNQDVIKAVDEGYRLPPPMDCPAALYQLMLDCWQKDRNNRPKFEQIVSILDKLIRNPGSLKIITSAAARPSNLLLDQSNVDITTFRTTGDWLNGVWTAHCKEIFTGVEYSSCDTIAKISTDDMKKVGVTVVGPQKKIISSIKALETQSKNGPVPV
Chain of PDGFRα(V561D)(h) (P16234 24-1089 V561D): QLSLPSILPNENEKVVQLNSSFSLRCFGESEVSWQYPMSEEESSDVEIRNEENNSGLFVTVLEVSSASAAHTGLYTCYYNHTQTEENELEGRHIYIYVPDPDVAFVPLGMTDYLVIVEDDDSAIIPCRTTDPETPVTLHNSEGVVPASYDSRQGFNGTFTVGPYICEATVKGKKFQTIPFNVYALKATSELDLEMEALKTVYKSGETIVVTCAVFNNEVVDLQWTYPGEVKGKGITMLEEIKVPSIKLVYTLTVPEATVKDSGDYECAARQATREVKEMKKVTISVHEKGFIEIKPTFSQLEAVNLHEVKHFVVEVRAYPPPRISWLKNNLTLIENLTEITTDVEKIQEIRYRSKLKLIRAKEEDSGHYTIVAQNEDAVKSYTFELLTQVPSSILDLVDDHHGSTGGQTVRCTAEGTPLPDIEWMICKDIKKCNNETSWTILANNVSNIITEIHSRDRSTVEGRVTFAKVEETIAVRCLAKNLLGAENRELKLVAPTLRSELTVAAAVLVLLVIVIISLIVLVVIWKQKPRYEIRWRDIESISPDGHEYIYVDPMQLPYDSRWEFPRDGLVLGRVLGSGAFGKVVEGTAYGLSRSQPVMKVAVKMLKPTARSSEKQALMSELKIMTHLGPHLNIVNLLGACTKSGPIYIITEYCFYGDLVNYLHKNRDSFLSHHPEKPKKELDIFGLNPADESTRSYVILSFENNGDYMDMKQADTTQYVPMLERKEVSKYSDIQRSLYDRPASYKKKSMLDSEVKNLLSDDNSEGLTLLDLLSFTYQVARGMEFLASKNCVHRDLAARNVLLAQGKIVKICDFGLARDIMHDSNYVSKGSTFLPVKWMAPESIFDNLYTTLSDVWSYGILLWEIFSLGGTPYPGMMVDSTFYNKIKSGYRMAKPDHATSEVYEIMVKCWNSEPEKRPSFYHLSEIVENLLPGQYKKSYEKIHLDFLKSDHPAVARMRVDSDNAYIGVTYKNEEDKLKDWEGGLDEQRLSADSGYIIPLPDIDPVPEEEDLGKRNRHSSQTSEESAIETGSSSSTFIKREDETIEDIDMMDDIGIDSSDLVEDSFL
Chain of MuSK(h) (O15146 24-869): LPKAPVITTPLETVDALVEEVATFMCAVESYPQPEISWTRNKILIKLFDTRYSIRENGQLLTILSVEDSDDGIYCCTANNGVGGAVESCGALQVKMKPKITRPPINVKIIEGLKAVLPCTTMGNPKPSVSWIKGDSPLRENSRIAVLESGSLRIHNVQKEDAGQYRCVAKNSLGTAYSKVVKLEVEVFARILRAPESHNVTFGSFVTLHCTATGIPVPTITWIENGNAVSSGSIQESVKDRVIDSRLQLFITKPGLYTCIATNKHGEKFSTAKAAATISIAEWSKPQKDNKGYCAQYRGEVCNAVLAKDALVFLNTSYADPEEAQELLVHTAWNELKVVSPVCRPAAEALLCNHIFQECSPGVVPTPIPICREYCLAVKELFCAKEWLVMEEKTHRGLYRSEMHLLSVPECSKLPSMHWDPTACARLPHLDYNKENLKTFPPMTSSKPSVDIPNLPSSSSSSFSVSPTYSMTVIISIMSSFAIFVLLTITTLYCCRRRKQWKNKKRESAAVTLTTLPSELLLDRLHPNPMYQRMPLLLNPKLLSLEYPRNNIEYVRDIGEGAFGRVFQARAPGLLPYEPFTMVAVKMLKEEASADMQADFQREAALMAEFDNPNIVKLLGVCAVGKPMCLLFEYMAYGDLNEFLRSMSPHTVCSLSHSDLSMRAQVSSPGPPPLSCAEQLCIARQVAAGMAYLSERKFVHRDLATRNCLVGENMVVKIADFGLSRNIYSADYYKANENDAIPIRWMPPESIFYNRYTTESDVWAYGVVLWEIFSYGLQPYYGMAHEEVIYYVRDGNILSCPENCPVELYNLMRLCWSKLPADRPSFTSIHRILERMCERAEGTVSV
Chain of NEK6(h) (Q9HC98 whole entry): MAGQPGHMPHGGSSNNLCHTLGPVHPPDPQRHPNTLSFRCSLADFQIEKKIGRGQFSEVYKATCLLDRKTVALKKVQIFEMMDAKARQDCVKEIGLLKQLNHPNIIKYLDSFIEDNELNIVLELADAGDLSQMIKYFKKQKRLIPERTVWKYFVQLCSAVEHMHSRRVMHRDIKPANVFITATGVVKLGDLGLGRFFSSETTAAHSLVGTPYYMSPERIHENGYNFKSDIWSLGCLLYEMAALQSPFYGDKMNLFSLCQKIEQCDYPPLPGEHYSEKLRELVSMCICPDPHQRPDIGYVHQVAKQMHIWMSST

- Activity % [1]: 5%
- Activity % [2]: 94%
- Activity % [3]: 48%
- Activity % [4]: 22%
- Activity % [5]: 30%
- Activity % [6]: 53%
- Activity % [7]: 109%
- Activity % [8]: 20%
- Activity % [9]: 87%
- Activity % [10]: 8%
- Activity % [11]: 91%
- Activity % [12]: 5%
- Activity % [13]: 66%
- Activity % [14]: 19%
- Activity % [15]: 9%
- Activity % [16]: 0%
- Activity % [17]: 69%
- Activity % [18]: 0%
- Activity % [19]: 111%
- Activity % [20]: 42%
- Activity % [21]: 54%
- Activity % [22]: 90%
- Activity % [23]: 44%
- Activity % [24]: 2%
- Activity % [25]: 109%
- Activity % [26]: 85%
- Activity % [27]: 95%
- Activity % [28]: 90%
- Activity % [29]: 114%
- Activity % [30]: 0%
- Activity % [31]: 18%
- Activity % [32]: 101%
- Activity % [33]: 103%
- Activity % [34]: 9%
- Activity % [35]: 95%
- Activity % [36]: 96%
- Activity % [37]: 107%
- Activity % [38]: 65%
- Activity % [39]: 99%
- Activity % [40]: 87%
Structure (SMILES): Cc1cc2c(F)c(Oc3nc(Nc4cc(C5CC5)[nH]n4)cc(N4CCN(C)CC4)n3)cc(F)c2[nH]1 [NTW-3475]
